“And” between values parts separate entries of the source, which are not always exact repeats. Equal entries are not always repeated. Where two headings read alike, the source gives them in different places.
Assays:
Assay in all cases: microbe, parasite or virus in culture
EV-A71 = assay type: cell-based, enterovirus A71; settings: for EC50: Enterovirus A
CV-A24 = assay type: cell-based, coxsackievirus A24; settings: Enterovirus C
EV-D68 = assay type: cell-based, enterovirus D68; settings: for EC50: Enterovirus D
HRV-A2 = assay type: cell-based, human rhinovirus; settings: for EC50: Human rhinovirus sp.
HRV-B14 = assay type: cell-based, human rhinovirus

Structure (SMILES): COc1ccc(N(Cc2ccc(F)cc2)C(=O)c2ccco2)cc1 [Compound 1, N-(4-fluorobenzyl)-N-(4-methoxyphenyl)furan-2-carboxamide]
- Figure 7 dose-response raw data, EV-A71 (triplicate values) (EV-A71; Concentration 0.0046 µM): 12.0987 and 12.2161 and 13.2733
- Figure 7 dose-response raw data, EV-A71 (triplicate values) (EV-A71; Concentration 0.0137 µM): 11.5913 and 20.0727 and 21.6478
- Figure 7 dose-response raw data, EV-A71 (triplicate values) (EV-A71; Concentration 0.0412 µM): 13.4087 and 20.6785 and 25.0404
- Figure 7 dose-response raw data, EV-A71 (triplicate values) (EV-A71; Concentration 0.1235 µM): 12.0987 and 12.2161 and 13.2733
- Figure 7 dose-response raw data, EV-A71 (triplicate values) (EV-A71; Concentration 0.3704 µM): 11.5913 and 20.0727 and 21.6478
- Figure 7 dose-response raw data, EV-A71 (triplicate values) (EV-A71; Concentration 1.1111 µM): 13.4087 and 20.6785 and 25.0404
- Figure 7 dose-response raw data, EV-A71 (triplicate values) (EV-A71; Concentration 3.3333 µM): 12.0987 and 12.2161 and 13.2733
- Figure 7 dose-response raw data, EV-A71 (triplicate values) (EV-A71; Concentration 11.1111 µM): 11.5913 and 20.0727 and 21.6478
- Figure 7 dose-response raw data, EV-A71 (triplicate values) (EV-A71; Concentration 33.3333 µM): 13.4087 and 20.6785 and 25.0404
- Figure 7 dose-response raw data, EV-A71 (triplicate values) (EV-A71; Concentration 100 µM): 11.5913 and 20.0727 and 21.6478
- EC50 (EV-A71; EVA71, HeLa R19, read-out: EC50 EV-A71): > 30 µM
- EC50 (EV-A71; EVA71, HeLa R19, read-out: EC50 EV-A71 Average): > 30 µM
- EC50 (EV-A71; EVA71, HeLa R19, read-out: EC50 EV-A71 Experiement 3): > 30 µM
- EC50 (EV-A71; EVA71, HeLa R19, read-out: EC50 EV-A71 Experiment 1): > 30 µM
- EC50 (EV-A71; EVA71, HeLa R19, read-out: EC50 EV-A71 Experiment 2): > 30 µM
- EC50 (EV-A71; EVA71, HeLa R19, read-out: EC50 EV-A71 strain BrCr): > 30 µM
- EC50 (EV-A71; EVA71, HeLa R19, read-out: EC50 EV-A71 strain TW/2728/04): > 30 µM
- EC50 (EV-A71; EVA71, HeLa R19, read-out: EC50 EV-A71 strain TW/2945/98): > 30 µM
- EC50 (EV-A71; EVA71, HeLa R19, read-out: EC50 EV-A71 strain TW/70811/08): > 30 µM
- EC50 (EV-A71; EVA71, HeLa R19, read-out: EC50 EV-A71 strain TW/72232/04): > 30 µM
- EC50 (EV-A71; EVA71, HeLa R19, read-out: EC50 EV-A71 strain TW/96016/08): > 30 µM
- EC50 (CV-A24; CVA24, HeLa R19, read-out: EC50 CV-A24): > 30 µM
- EC50 (CV-A24; CVA24, HeLa R19, read-out: EC50 CV-A24 Average): > 30 µM
- EC50 (CV-A24; CVA24, HeLa R19, read-out: EC50 CV-A24 Experiement 3): > 30 µM
- EC50 (CV-A24; CVA24, HeLa R19, read-out: EC50 CV-A24 Experiment 1): > 30 µM
- EC50 (CV-A24; CVA24, HeLa R19, read-out: EC50 CV-A24 Experiment 2): > 30 µM
- EC50 (CV-A24; CVA24, HeLa R19, read-out: EC50 CV-A24 strain Joseph): > 30 µM
- inhibition of EV-D68 replication (in words) (EV-D68): antiviral activity
- Figure 7 dose-response raw data, EV-D68 (triplicate values) (EV-D68; Concentration 0.001 µM): 8.529 and 8.161 and 15.8928
- Figure 7 dose-response raw data, EV-D68 (triplicate values) (EV-D68; Concentration 0.0412 µM): 9.388 and 8.898 and 11.4747
- Figure 7 dose-response raw data, EV-D68 (triplicate values) (EV-D68; Concentration 0.1235 µM): 8.529 and 8.161 and 15.8928
- Figure 7 dose-response raw data, EV-D68 (triplicate values) (EV-D68; Concentration 0.3704 µM): 8.529 and 8.161 and 15.8928
- Figure 7 dose-response raw data, EV-D68 (triplicate values) (EV-D68; Concentration 1.1111 µM): 105.527 and 109.089 and 109.58
- Figure 7 dose-response raw data, EV-D68 (triplicate values) (EV-D68; Concentration 3.3333 µM): 104.422 and 100.246 and 109.335
- Figure 7 dose-response raw data, EV-D68 (triplicate values) (EV-D68; Concentration 10 µM): 100.368 and 102.702 and 104.422
- EC50 (EV-D68; EVD68, HeLa R19, read-out: EC50 EV-D68 Experiement 3): 0.31 µM
- EC50 (EV-D68; EVD68, HeLa R19, read-out: EC50 EV-D68 Experiment 1): 0.25 µM
- EC50 (EV-D68; EVD68, HeLa R19, read-out: EC50 EV-D68 Experiment 2): 0.39 µM
- EC50 (EV-D68; EVD68, HeLa R19, read-out: EC50 EV-D68 strain 4310900947): 3.65 ± 0.34 µM
- EC50 (EV-D68; EVD68, HeLa R19, read-out: EC50 EV-D68 strain 4310901348): 4.47 ± 0.13 µM
- EC50 (EV-D68; EVD68, HeLa R19, read-out: EC50 EV-D68 strain 4310902042): 4.05 ± 0.65 µM
- EC50 (EV-D68; EVD68, HeLa R19, read-out: EC50 EV-D68 strain 4310902284): 2.23 ± 0.12 µM
- EC50 (EV-D68; EVD68, HeLa R19, read-out: EC50 EV-D68 strain 4311000742): 3.83 ± 0.4 µM
- EC50 (EV-D68; EVD68, HeLa R19, read-out: EC50 Exp2): 1.95 µM
- Figure 7 dose-response raw data, HRV-A2 (triplicate values) (HRV-A2; Concentration 0.0412 µM): 7.118 and 8.563 and 11.1417
- Figure 7 dose-response raw data, HRV-A2 (triplicate values) (HRV-A2; Concentration 0.1235 µM): 6.499 and 7.221 and 5.983
- Figure 7 dose-response raw data, HRV-A2 (triplicate values) (HRV-A2; Concentration 0.3704 µM): 11.7607 and 8.975 and 8.666
- Figure 7 dose-response raw data, HRV-A2 (triplicate values) (HRV-A2; Concentration 3.3333 µM): 6.087 and 4.436 and 5.983
- Figure 7 dose-response raw data, HRV-A2 (triplicate values) (HRV-A2; Concentration 33.3333 µM): 4.849 and 8.666 and 8.769
- Figure 7 dose-response raw data, HRV-A2 (triplicate values) (HRV-A2; Concentration 100 µM): 4.849 and 8.666 and 8.769
- EC50 (HRV-A2; HRVA2, HeLa R19, read-out: EC50 HRV-A2): > 30 µM
- EC50 (HRV-A2; HRVA2, HeLa R19, read-out: EC50 HRV-A2 Average): > 30 µM
- EC50 (HRV-A2; HRVA2, HeLa R19, read-out: EC50 HRV-A2 Experiement 3): > 30 µM
- EC50 (HRV-A2; HRVA2, HeLa R19, read-out: EC50 HRV-A2 Experiment 1): > 30 µM
- EC50 (HRV-A2; HRVA2, HeLa R19, read-out: EC50 HRV-A2 Experiment 2): > 30 µM
- inhibition of HRV-B14 replication (in words) (HRV-B14): antiviral activity

Source: article PMC7673538 (PLoS Biology, 2020)
